# Test results reported in patent publication US10406239B2, “Water-soluble docetaxel anticancer drug compound and preparation method and use thereof” (NANJING YOUYI MEDICAL TECHNOLOGY CO., LTD, priority 2015, dated 2019).
# Marks after values point to notes of the source that are not given here.
# Assays:
# [1] = Effect on body weight of nude mice with A549 human lung cancer xenografts; format: in vivo, BALB/c nude mice; conditions: for Initial body weight: before dosing; for Final body weight: once every 3 days, end of study (21 days)
# Experimental: (§1) The dose volume was 0.4 ml per 20 g, that is, the dose was 96 mg/kg. Then, the solution was diluted to other desired concentrations with 0.9% sodium chloride solution.
# (§2) Docetaxel injection, manufactured by Jiangsu Hengrui Pharmaceutical Co., Ltd., lot number: 15011215, specification: 0.5 ml: 20 mg. Formulation method: during use, 20 mg of docetaxel injection of the above specification was added to 1.5 ml of a solvent for the docetaxel injection to give a concentration of 10 mg/ml, and then fully diluted with saline to 1 mg/ml. The dose volume was 0.2 ml per 20 g, that is, the dose was 10 mg/kg.
# (§3) BALB/c nude mice, provided by Changzhou Kavens Laboratory Animal Co., Ltd. (Experimental Animal Production License: SOCK (Su) 2011-0003), age: 35-40 days, weight: 18-24 g, female.
# (§4) Human lung cancer A549 cell line in logarithmic growth phase was prepared into a cell suspension of 1×10^8 cells/ml under aseptic conditions and subcutaneously inoculated to the right axillary fossa of nude mice in a volume of 0.1 ml. The size of the xenograft in the nude mice was measured with a vernier caliper. After the xenografts grew to 100-300 mm^3, the animals were randomly grouped. The anti-tumor effect of the test agents was dynamically observed by measuring the size of the xenografts. The size of the xenografts was measured once every 3 days. The dose volume was 0.4 ml/20 g. Twenty-one days later, the mice were sacrificed and the tumors were surgically excised and weighed. The tumor volume (TV) is calculated by a formula below: TV=½×a×b^2
# [2] = test system: A549 human lung cancer xenografts; test: Growth inhibition on A549 human lung cancer xenografts in nude mice; format: in vivo, BALB/c nude mice; conditions: for Tumor inhibition rate: by tumor weight; for Tumor weight: tumors excised after 21 days
# Experimental: as §1, §2, §3
# A549 human lung cancer xenografts in nude mice was established by inoculating human lung cancer A549 cell line subcutaneously to the axillary fossa of nude mice in an amount of 2*10^6 cells/animal.
# as §4
# The relative tumor volume (RTV) is calculated based on the measurements by a formula: RTV=Vt/V0, where V0 is the measured tumor volume upon being caged (i.e., d0) and Vt is the tumor volume at each measurement. The evaluation index of the anti-tumor activity is relative tumor growth rate T/C (%), which is calculated by a formula below: […]
# in which TRTV is the RTV of the treatment group; and CRTV is the RTV of the negative control group.
# The tumor inhibition rate is calculated by a formula below: […]
# Tweight is the average tumor weight of the treatment group; and Cweight is the average tumor weight of the negative control group.
# [3] = XBB-023 24 mg/kg, tail vein, once every 3 days, 7 doses, 21 d
# [4] = XBB-023 24 mg/kg, tail vein, once every 3 days, 3 d
# [5] = XBB-023 24 mg/kg, tail vein, once every 3 days, 6 d
# [6] = XBB-023 24 mg/kg, tail vein, once every 3 days, 9 d
# [7] = XBB-023 24 mg/kg, tail vein, once every 3 days, 12 d
# [8] = XBB-023 24 mg/kg, tail vein, once every 3 days, 15 d
# [9] = XBB-023 24 mg/kg, tail vein, once every 3 days, 18 d
# [10] = XBB-023 48 mg/kg, tail vein, once every 3 days, 7 doses, 21 d
# [11] = XBB-023 48 mg/kg, tail vein, once every 3 days, 3 d
# [12] = XBB-023 48 mg/kg, tail vein, once every 3 days, 6 d
# [13] = XBB-023 48 mg/kg, tail vein, once every 3 days, 9 d
# [14] = XBB-023 48 mg/kg, tail vein, once every 3 days, 12 d
# [15] = XBB-023 48 mg/kg, tail vein, once every 3 days, 15 d
# [16] = XBB-023 48 mg/kg, tail vein, once every 3 days, 18 d
# [17] = XBB-023 96 mg/kg, tail vein, once every 3 days, 7 doses, 21 d
# [18] = XBB-023 96 mg/kg, tail vein, once every 3 days, 3 d
# [19] = XBB-023 96 mg/kg, tail vein, once every 3 days, 6 d
# [20] = XBB-023 96 mg/kg, tail vein, once every 3 days, 9 d
# [21] = XBB-023 96 mg/kg, tail vein, once every 3 days, 12 d
# [22] = XBB-023 96 mg/kg, tail vein, once every 3 days, 15 d
# [23] = XBB-023 96 mg/kg, tail vein, once every 3 days, 18 d
substance,measurement,setting,value
Polyethylene Glycol Monomethyl Ether (Mn=1000) Docetaxel-2′-Diglycolate [XBB-023],effect on the body weight of the experimental mice (in words),"[1]; 48 mg/kg XBB-023, P<0.05",significant effect
same,effect on the body weight of the experimental mice (in words),"[1]; 96 mg/kg XBB-023, P<0.01",Extremely significant effect
same,Initial body weight,[1]; XBB-023 24 mg/kg group,22.17 ± 1.57 g
same,Final body weight,[1]; XBB-023 24 mg/kg,23.17 ± 0.90 g
same,Initial body weight,[1]; XBB-023 48 mg/kg group,21.33 ± 1.37 g
same,Final body weight,[1]; XBB-023 48 mg/kg,20.00 ± 0.82 g
same,Initial body weight,[1]; XBB-023 96 mg/kg group,22.00 ± 0.82 g
same,Final body weight,[1]; XBB-023 96 mg/kg,16.00 ± 2.31 g
same,Tumor volume,"[2]; XBB-023 24 mg/kg group, 0 d (baseline)",101.08 ± 20.73 mm^3
same,Tumor inhibition rate,"[2]; XBB-023 24 mg/kg, once every 3 days, 7 doses, 24 mg/kg",34.73%
same,Tumor weight,"[2]; XBB-023 24 mg/kg, once every 3 days",0.78 ± 0.22 g
same,RTV (relative tumor volume),[2]; [3],6.39 ± 0.81
same,Tumor volume,[2]; [3],660.00 ± 210.71* mm^3
same,T/C (relative tumor growth rate),"[2]; XBB-023 24 mg/kg, tail vein, once every 3 days, 7 doses, 21 d, 24 mg/kg",56.30%
same,RTV (relative tumor volume),[2]; [4],2.27 ± 0.52
same,T/C (relative tumor growth rate),[2]; [4],78.90%
same,Tumor volume,[2]; [4],232.16 ± 79.30* mm^3
same,RTV (relative tumor volume),[2]; [5],2.38 ± 0.37
same,T/C (relative tumor growth rate),[2]; [5],66.13%
same,Tumor volume,[2]; [5],244.45 ± 80.88** mm^3
same,RTV (relative tumor volume),[2]; [6],2.85 ± 0.39
same,T/C (relative tumor growth rate),[2]; [6],61.19%
same,Tumor volume,[2]; [6],289.34 ± 82.35** mm^3
same,RTV (relative tumor volume),[2]; [7],3.68 ± 0.51
same,T/C (relative tumor growth rate),[2]; [7],57.80%
same,Tumor volume,[2]; [7],371.41 ± 95.01** mm^3
same,RTV (relative tumor volume),[2]; [8],4.91 ± 1.58
same,T/C (relative tumor growth rate),[2]; [8],58.72%
same,Tumor volume,[2]; [8],522.84 ± 249.70* mm^3
same,RTV (relative tumor volume),[2]; [9],5.68 ± 1.66
same,T/C (relative tumor growth rate),[2]; [9],58.60%
same,Tumor volume,[2]; [9],602.28 ± 288.50** mm^3
same,Tumor volume,"[2]; XBB-023 48 mg/kg group, 0 d (baseline)",101.49 ± 18.47 mm^3
same,Tumor inhibition rate,"[2]; XBB-023 48 mg/kg, once every 3 days, 7 doses, 48 mg/kg",68.55%
same,Tumor weight,"[2]; XBB-023 48 mg/kg, once every 3 days",0.38 ± 0.14 g
same,RTV (relative tumor volume),[2]; [10],2.90 ± 0.37
same,Tumor volume,[2]; [10],299.13 ± 86.76** mm^3
same,T/C (relative tumor growth rate),"[2]; XBB-023 48 mg/kg, tail vein, once every 3 days, 7 doses, 21 d, 48 mg/kg",25.56%
same,RTV (relative tumor volume),[2]; [11],1.59 ± 0.35
same,T/C (relative tumor growth rate),[2]; [11],55.23%
same,Tumor volume,[2]; [11],159.57 ± 38.77** mm^3
same,RTV (relative tumor volume),[2]; [12],1.80 ± 0.18
same,T/C (relative tumor growth rate),[2]; [12],49.90%
same,Tumor volume,[2]; [12],180.89 ± 31.39** mm^3
same,T/C (relative tumor growth rate),[2]; [13],52.80%
same,Tumor volume,[2]; [13],245.14 ± 40.82** mm^3
same,RTV (relative tumor volume),[2]; [14],3.02 ± 0.53
same,T/C (relative tumor growth rate),[2]; [14],47.50%
same,Tumor volume,[2]; [14],302.66 ± 60.48 mm^3
same,RTV (relative tumor volume),[2]; [15],2.61 ± 0.47
same,T/C (relative tumor growth rate),[2]; [15],31.23%
same,Tumor volume,[2]; [15],264.78 ± 68.29** mm^3
same,RTV (relative tumor volume),[2]; [16],2.50 ± 0.37
same,T/C (relative tumor growth rate),[2]; [16],25.76%
same,Tumor volume,[2]; [16],257.22 ± 76.37** mm^3
same,Tumor volume,"[2]; XBB-023 96 mg/kg group, 0 d (baseline)",102.83 ± 14.74 mm^3
same,inhibition rate higher than that in the positive control group,[2]; XBB-023 96 mg/kg versus 10 mg/kg docetaxel,16.29%
same,Tumor inhibition rate,"[2]; XBB-023 96 mg/kg, once every 3 days, 7 doses, 96 mg/kg",88.45%
same,Tumor weight,"[2]; XBB-023 96 mg/kg, once every 3 days",0.14 ± 0.03 g
same,RTV (relative tumor volume),[2]; [17],1.46 ± 0.32
same,Tumor volume,[2]; [17],146.15 ± 20.51** mm^3
same,T/C (relative tumor growth rate),"[2]; XBB-023 96 mg/kg, tail vein, once every 3 days, 7 doses, 21 d, 96 mg/kg",12.83%
same,RTV (relative tumor volume),[2]; [18],1.54 ± 0.31
same,T/C (relative tumor growth rate),[2]; [18],53.47%
same,Tumor volume,[2]; [18],154.44 ± 15.73** mm^3
same,RTV (relative tumor volume),[2]; [19],1.26 ± 0.15
same,T/C (relative tumor growth rate),[2]; [19],35.11%
same,Tumor volume,[2]; [19],129.15 ± 19.29** mm^3
same,RTV (relative tumor volume),[2]; [20],1.54 ± 0.22
same,T/C (relative tumor growth rate),[2]; [20],33.18%
same,Tumor volume,[2]; [20],15628 ± 17.71** mm^3
same,RTV (relative tumor volume),[2]; [21],1.54 ± 0.33
same,T/C (relative tumor growth rate),[2]; [21],24.19%
same,Tumor volume,[2]; [21],156.91 ± 35.05** mm^3
same,RTV (relative tumor volume),[2]; [22],1.06 ± 0.28
same,T/C (relative tumor growth rate),[2]; [22],12.63%
same,Tumor volume,[2]; [22],107.31 ± 27.45** mm^3
same,RTV (relative tumor volume),[2]; [23],1.13 ± 0.21
same,T/C (relative tumor growth rate),[2]; [23],11.66%
same,Tumor volume,[2]; [23],114.16 ± 17.61** mm^3
